According to PMC5681660, “Reduced hepatitis B and D viral entry using clinically applied drugs as novel inhibitors of the bile acid transporter NTCP” (Scientific Reports, 2017):
Counter-ions that a name gives are not always drawn. Like-named read-outs stand apart in the source and are kept apart here. Starred links: 1 amine or outer side, 2 acyl side, 3 side chain; linkers in the order of their positions; H or OH if unused. Positions of bridges follow the written chain, without caps; N, C: chain ends. Non-standard residues stand in square brackets, D forms with d. Residues, ends and D or L forms follow the SMILES beside them. *: point of attachment. X1 = NC1=N[C@@H]([C@H](N[*:1])C(=O)[*:2])C[C@H](O)N1; ΔAla(Z-3-ureido) = NC(=O)N/C=C(\N)C(=O)O; β3hOrn = NCCC[C@H](N)CC(=O)*; Dap = NC[C@H](N)C(=O)O

Experiments:
[1] = target: T1, human NTCP (Homo sapiens, UniProt Q14973); test: Screening fluorescent competitive Myrcludex B-FITC binding assay (96-well, 10 µM drug)
T1 sequence (Q14973 1-349): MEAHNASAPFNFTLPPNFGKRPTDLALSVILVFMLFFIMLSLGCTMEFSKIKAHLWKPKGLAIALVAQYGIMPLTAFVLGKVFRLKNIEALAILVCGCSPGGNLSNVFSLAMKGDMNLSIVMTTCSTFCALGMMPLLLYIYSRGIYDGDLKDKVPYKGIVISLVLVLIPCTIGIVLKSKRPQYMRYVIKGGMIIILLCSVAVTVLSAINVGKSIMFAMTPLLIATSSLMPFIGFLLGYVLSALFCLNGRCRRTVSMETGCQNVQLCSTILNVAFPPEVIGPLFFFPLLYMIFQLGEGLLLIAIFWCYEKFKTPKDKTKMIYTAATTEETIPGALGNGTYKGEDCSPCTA

[2] = target: T1, human NTCP; test: Screening taurocholate uptake assay (96-well, [14C]taurocholate, 10 µM drug)
[3] = Prestwick library screen, Myrcludex B-FITC binding, 10 µM drug
[4] = Prestwick library screen, taurocholate uptake, 10 µM drug
[5] = ranking score beside the functional and binding assay B-scores of the screen
[6] = screen, 10 µM drug, Myrcludex B-FITC binding
[7] = combined ranking from functional and binding screening assays
[8] = screen, 10 µM drug, taurocholate uptake
[9] = Prestwick library screen, 10 µM drug, B-score of Myrcludex B-FITC binding
[10] = Prestwick library screen, 10 µM drug, B-score of taurocholate uptake
[11] = combined ranking from functional and binding assay B-scores

Compound: Nc1nc(N)c2nc(-c3ccccc3)c(N)nc2n1 [Triamterene]
- B-score binding assay [1, 3]: -0.121
- B-score functional assay [2, 4]: 0.708
- Ranking score [2, 5]: 725.193

Compound: CCOC1O[C@H]([C@@H](COCc2ccccc2)OCc2ccccc2)[C@H](OCc2ccccc2)[C@H]1O (stereo partly drawn) [Tribenoside]
- B-score binding assay [1, 6]: -0.023
- Ranking score [2, 7]: 300.985
- B-score functional assay [2, 8]: -1.789

Compound: COP(=O)(OC)C(O)C(Cl)(Cl)Cl (stereo not drawn) [Trichlorfon]
- B-score binding assay [1, 6]: 0.016
- Ranking score [2, 7]: 431.184
- B-score functional assay [2, 8]: -0.853

Compound: NS(=O)(=O)c1cc2c(cc1Cl)NC(C(Cl)Cl)NS2(=O)=O (stereo not drawn) [Trichlormethiazide]
- B-score binding assay [1, 9]: 0.486
- B-score functional assay [2, 10]: 0.593
- Ranking score [2, 11]: 921.314

Compound: CN1CCN(CCCN2c3ccccc3Sc3ccc(C(F)(F)F)cc32)CC1 [Trifluoperazine dihydrochloride]
- B-score binding assay [1, 3]: -0.002
- B-score functional assay [2, 4]: 0.212
- Ranking score [2, 5]: 714.92

Compound: CN(C)CCCN1c2ccccc2Sc2ccc(C(F)(F)F)cc21 [Triflupromazine hydrochloride]
- B-score binding assay [1, 6]: -0.314
- Ranking score [2, 7]: 447.888
- B-score functional assay [2, 8]: -0.264

Compound: O=c1[nH]c(=O)n([C@H]2C[C@H](O)[C@@H](CO)O2)cc1C(F)(F)F [Trifluridine]
- B-score binding assay [1, 9]: 2.847
- B-score functional assay [2, 10]: 0.173
- Ranking score [2, 11]: 994.589

Compound: CC(=O)Oc1cc(C(F)(F)F)ccc1C(=O)O [Triflusal]
- B-score binding assay [1, 6]: -0.002
- Ranking score [2, 7]: 440.15
- B-score functional assay [2, 8]: -0.747

Compound: CC(CN(C)C)CN1c2ccccc2Sc2ccccc21.CC(CN(C)C)CN1c2ccccc2Sc2ccccc21.O=C(O)C(O)C(O)C(=O)O (stereo not drawn) [Trimeprazine tartrate]
- B-score binding assay [1, 6]: -0.763
- Ranking score [2, 7]: 352.65
- B-score functional assay [2, 8]: -0.375

Compound: COc1ccc(CN2CCNCC2)c(OC)c1OC [Trimetazidine dihydrochloride]
- B-score binding assay [1, 6]: -1.545
- Ranking score [2, 7]: 350.668
- B-score functional assay [2, 8]: 0.211

Compound: CN1C(=O)OC(C)(C)C1=O [Trimethadione]
- B-score binding assay [1, 9]: 0.001
- B-score functional assay [2, 10]: 1.466
- Ranking score [2, 11]: 860.791

Compound: COc1cc(C(=O)N2CCOCC2)cc(OC)c1OC [Trimetozine]
- B-score binding assay [1, 9]: 0.441
- B-score functional assay [2, 10]: 0.651
- Ranking score [2, 11]: 925.93

Compound: Cc1cc2cc3c(C)cc(=O)oc3c(C)c2o1 [Trioxsalen]
- B-score binding assay [1, 9]: 1.537
- B-score functional assay [2, 10]: 0.56
- Ranking score [2, 11]: 1035.49

Compound: CO[C@H]1C[C@H](O[C@H]2[C@H](C)[C@@H](O[C@@H]3O[C@H](C)C[C@H](N(C)C)[C@H]3OC(C)=O)[C@@H](C)C[C@@]3(CO3)C(=O)[C@H](C)[C@@H](OC(C)=O)[C@@H](C)[C@@H](C)OC(=O)[C@@H]2C)O[C@@H](C)[C@@H]1OC(C)=O [Troleandomycin]
- B-score binding assay [1, 3]: 0.633
- B-score functional assay [2, 4]: -0.071
- Ranking score [2, 5]: 732.508

Compound: COc1cc(C(=O)NC2CCCNC2)cc(OC)c1OC (stereo not drawn) [Troxipide]
- B-score binding assay [1, 9]: 2.726
- B-score functional assay [2, 10]: 0.286
- Ranking score [2, 11]: 1019.78

Compound: CC[C@H]1OC(=O)C[C@@H](O)[C@H](C)[C@@H](O[C@@H]2O[C@H](C)[C@@H](O[C@H]3C[C@@](C)(O)[C@@H](O)[C@H](C)O3)[C@H](N(C)C)[C@H]2O)[C@@H](CC=O)C[C@@H](C)C(=O)/C=C/C(C)=C/[C@@H]1CO[C@@H]1O[C@H](C)[C@@H](O)[C@@H](OC)[C@H]1OC [Tylosin]
- B-score binding assay [1, 9]: 2.256
- B-score functional assay [2, 10]: 0.165
- Ranking score [2, 11]: 978.04

Compound: COc1ccccc1N1CCN(CCCNc2cc(=O)n(C)c(=O)n2C)CC1 [Urapidil hydrochloride]
- B-score binding assay [1, 9]: 1.015
- B-score functional assay [2, 10]: 0.807
- Ranking score [2, 11]: 1027.42

Compound: Cc1onc(-c2ccccc2)c1-c1ccc(S(N)(=O)=O)cc1 [Valdecoxib]
- B-score binding assay [1, 3]: 0.051
- B-score functional assay [2, 4]: -0.028
- Ranking score [2, 5]: 650.385

Compound: CCCC(CCC)C(=O)O [Valproic acid]
- B-score binding assay [1, 9]: 1.515
- B-score functional assay [2, 10]: 0.92
- Ranking score [2, 11]: 1093.47

Compound: CCCCC(=O)N(Cc1ccc(-c2ccccc2-c2nnn[nH]2)cc1)[C@H](C(=O)O)C(C)C [Valsartan]
- B-score binding assay [1]: 0.016
- Ranking score [2]: 721.211
- B-score functional assay [2, 4]: 0.156

Compound: CN[C@H](CC(C)C)C(=O)N[C@H]1C(=O)N[C@@H](CC(N)=O)C(=O)N[C@H]2C(=O)N[C@H]3C(=O)N[C@H](C(=O)N[C@H](C(=O)O)c4cc(O)cc(O)c4-c4cc3ccc4O)[C@H](O)c3ccc(c(Cl)c3)Oc3cc2cc(c3O[C@@H]2O[C@H](CO)[C@@H](O)[C@H](O)[C@H]2O[C@H]2C[C@](C)(N)[C@H](O)[C@H](C)O2)Oc2ccc(cc2Cl)[C@H]1O [Vancomycin hydrochloride]
- B-score binding assay [1]: 1.401
- B-score functional assay [2]: -0.819
- Ranking score [2]: 571.108

Compound: CC(=O)O[C@H]1C[C@@H]2CC[C@@H]3[C@H](CC[C@@]4(C)[C@H]3C[C@H]([N+]3(C)CCCCC3)[C@@H]4OC(C)=O)[C@@]2(C)C[C@@H]1N1CCCCC1 [Vecuronium bromide]
- B-score binding assay [1, 3]: 0.155
- B-score functional assay [2, 4]: 0.006
- Ranking score [2, 5]: 708.114

Compound: Nc1ncnc2c1ncn2[C@@H]1O[C@H](CO)[C@@H](O)[C@@H]1O [Vidarabine]
- B-score binding assay [1, 6]: 1.523
- Ranking score [2, 7]: 319.086
- B-score functional assay [2, 8]: -2.606

Compound: C=CC(N)CCC(=O)O (stereo not drawn) [Vigabatrin]
- B-score binding assay [1, 3]: 0.671
- B-score functional assay [2, 4]: -0.08
- Ranking score [2, 5]: 730.208

Compound: CCOc1ccccc1OCC1CNCCO1 (stereo not drawn) [Viloxazine hydrochloride]
- B-score binding assay [1]: -0.914
- B-score functional assay [2]: -1.513
- Ranking score [2]: 214.483

Compound: CC[C@]12CCCN3CCc4c(n(c5ccccc45)[C@@](O)(C(=O)OC)C1)[C@@H]32 [Vincamine]
- B-score binding assay [1, 3]: 0.616
- B-score functional assay [2, 4]: -0.257
- Ranking score [2, 5]: 659.7

Compound: CCOC(=O)C1=C[C@]2(CC)CCCN3CCc4c(n1c1ccccc41)[C@@H]32 [Vinpocetine]
- B-score binding assay [1, 6]: -1.57
- Ranking score [2, 7]: 428.448
- B-score functional assay [2, 8]: 2.672

Compound: NCCC[C@H](N)CC(=O)N[C@H]1CNC(=O)[C@H]([C@H]2C[C@H](O)NC(N)=N2)NC(=O)/C(=C/NC(N)=O)NC(=O)[C@H](CO)NC(=O)[C@H](CO)NC1=O.O=S(=O)(O)O [Viomycin sulfate] (β3hOrn-[Dap]SS[ΔAla(Z-3-ureido)][X1]; lactam 1-C)
- B-score binding assay [1, 9]: 0.234
- B-score functional assay [2, 10]: 0.436
- Ranking score [2, 11]: 846.67

Compound: C[C@@H](c1ncncc1F)[C@](O)(Cn1cncn1)c1ccc(F)cc1F [Voriconazole]
- B-score binding assay [1, 6]: -0.464
- Ranking score [2, 7]: 370.988
- B-score functional assay [2, 8]: -0.582

Compound: CC(=O)CC(c1ccccc1)c1c(O)c2ccccc2oc1=O (stereo not drawn) [Warfarin]
- B-score binding assay [1, 6]: 0.123
- Ranking score [2, 7]: 391.491
- B-score functional assay [2, 8]: -1.345

Compound: O=C(NCCNCC(O)COc1ccc(O)cc1)N1CCOCC1 (stereo not drawn) [Xamoterol hemifumarate]
- B-score binding assay [1]: -0.721
- B-score functional assay [2]: 0.875
- Ranking score [2]: 564.879

Compound: Cc1cccc(C)c1N=C1NCCCS1 [Xylazine]
- B-score binding assay [1]: -0.164
- B-score functional assay [2]: -0.697
- Ranking score [2]: 404.611
